Assay results published in patent US7531320B2, “Modulation of β-catenin/TCF-activated transcription” (priority 2003, dated 2009).

What was measured:
SW480 cells = experiment: cDNA microarray analysis (Clontech Atlas Human Cancer 1.2 Array) of SW480 cells; conditions: 25 μM; for Ratio, fos-related antigen (FRA1): gene code A13c; for Ratio, epidermal growth factor receptor (EGFR): gene code A12d; for Ratio, placental calcium-binding protein; calvasculin: gene code B07l; for Ratio, proliferating cyclic nuclear antigen (PCNA); cyclin: gene code C13e; for Ratio, growth arrest &DNA-damage-inducible protein 153 (GADD153): gene code C05d; for Ratio, integrin alpha 3 (ITGA3); galactoprotein B3 (GAPB3): gene code D03e; for Ratio, low-affinity nerve growth factor receptor (NGF receptor; NGFR): gene code D03k; for Ratio, histone H4: gene code D08b; for Ratio, nuclear protein: gene code D09b; for Ratio, interleukin-1 beta precursor (IL-1; IL1B); catabolin: gene code E07f; for Ratio, macrophage inhibitory cytokine 1 (MIC1): gene code E09e; for Ratio, neutrophil gelatinase-associated lipocalin precursor (NGAL): gene code F04i; for Ratio, early growth response alpha (EGR alpha): gene code F06n; for Ratio, gravin: gene code F09g; for Ratio, glycyl tRNA synthetase: gene code F13k
NFAT reporter construct = experiment: NFAT reporter assay in stably transfected Jurkat cells; type: cell-based
Experimental: FIG. 1. COMPOUND 1 inhibits β-catenin/TCF transcription. • A(i) and A(ii). Structures of COMPOUND 1, COMPOUND 2, COMPOUND 3, COMPOUND 4, and COMPOUND 5. • B(i) and B(ii). […] SW480 cells (10^5), (FIG. 1B(i)), were transfected with β-catenin/TCF luciferase construct. Cells were treated with COMPOUND 1 (1-64 μM). 24 hours post treatment lysates were prepared and subjected to dual luciferase assay. The data is represented in different form in FIG. 1B(ii). • C. COMPOUND 1 has no effect on NFAT reporter construct. Stably transfected Jurkat cells, right panel, with an NFAT reporter construct, were stimulated with PMA (10 ng/ml)/lonomycin (1 μg/ml), and treated with COMPOUND 1 (0.781-50 μM). 24 hours post treatment lysates were prepared and subjected to dual luciferase assay. All experiments were performed in duplicate and the values plotted as means +/−standard deviation. • D. CBP is the molecular target of COMPOUND 1. Nuclear extracts of SW480 cells were incubated with streptavidin-agarose beads coated with COMPOUND 2 (25 μM). Beads were washed 3 times and the eluted were subjected to gel electrophoresis and immunoblotting, with anti-CBP antibodies. […] The lysates were desalted using G-25 1 cc columns (Pharmacia) to remove the unbound ^14C-labeled-COMPOUND 1, and ^14C-labeled-COMPOUND 1 incorporation was measured.

[1] = tested on: nuclear β-catenin in HCT116 cells; experiment: β-catenin immunofluorescence localization in HCT116 cells; type: cell-based, human; conditions: 25 μM, 24 hours, to cytoplasmic membrane
Experimental: FIG. 4. COMPOUND 1 decreases nuclear β-catenin • A. β-catenin immunofluorescence microscopy. Log phase SW480 (left) and HCT116 (right) cells were fixed and stained with either anti-β-catenin red (upper panel, A) or anti-CBP (upper panel, B) green. The center panel represents the superimposed β-catenin and CBP in SW480 (left) and HCT116 (right) cells. […] 25 μg of total protein from the cell extracts of SW480 cells with or without 24 hr treatment of COMPOUND1 was used for detection of cytosolic and nuclear β-catenin.
Immunofluorescence was used to examine the localization of CBP and β-catenin in SW480 and HCT116 cells treated with COMPOUND 1 (25 μM) or control (0.5% DMSO). Cells at log phase were seeded and after 24 hours, the cells were treated with COMPOUND 1 or control. 24 hours post treatment, cells were fixed. The coverslips were incubated with antibodies raised against CBP (A-22) (Santa Cruz Biotechnology) and β-catenin (Transduction Laboratories), respectively. The slides were examined using a Nikon PCM 2000 Laser Scanning Confocal Microscope after the secondary antibodies conjugated to either FITC or TRITC (Jackson ImmunoResearch, Westgrove, Pa.) were applied.

For `O=C1C(Cc2ccc(O)cc2)N2C(=O)CCN(C(=O)NCc3ccccc3)C2CN1Cc1cccc2ccccc12` (stereo not shown) [COMPOUND 1], the “Ratio, WSL protein + TRAMP + Apo-3 + death domain receptor 3 (DDR3)” value (SW480 cells; 8-hour treatment, […]) was 1.84, the “Ratio, integrin beta 4 (ITGB4); CD104 antigen” value (SW480 cells; 8-hour treatment, […]) was 1.84 and the “Ratio, G2/mitotic-specific cyclin B1 (CCNB1)” value (SW480 cells; 8-hour treatment, gene code A05i) was 0.57. The “Ratio, matrix metalloproteinase 11 (MMP11); stromelysin 3” value (SW480 cells; 8-hour treatment, gene code A10f) was 0.77, the “Ratio, fos-related antigen (FRA1)” value (SW480 cells; 8-hour treatment) was 2.48 and the “Ratio, brain glucose transporter 3 (GTR3)” value (SW480 cells; 8-hour treatment, gene code A14n) was 1.94. For the same compound, the “Ratio, epidermal growth factor receptor (EGFR)” value (SW480 cells; 8-hour treatment) was 4.20, the “Ratio, ERBB-3 receptor protein-tyrosine kinase precursor” value (SW480 cells; 8-hour treatment, gene code A14d) was 1.36 and the “Ratio, linker for activation of T-cells (LAT)” value (SW480 cells; 8-hour treatment, gene code B01m) was 0.74. For the same compound, the “Ratio, placental calcium-binding protein; calvasculin” value (SW480 cells; 8-hour treatment) was 0.85, the “Ratio, ras-related C3 botulinum toxin substrate 2; p21-rac2” value (SW480 cells; 8-hour treatment, gene code B12j) was 0.62 and the “Ratio, retinoic acid receptor beta (RXR-beta; RXRB)” value (SW480 cells; 8-hour treatment, gene code B14n) was 0.74. The “Ratio, PTPCAAX1 nuclear tyrosine phosphatase (PRL-1)” value (SW480 cells; 8-hour treatment, gene code B08h) was 2.56, the “Ratio, MCM4 DNA replication licensing factor; CDC21 homolog” value (SW480 cells; 8-hour treatment, gene code C06f) was 0.38 and the “Ratio, growth arrest &DNA-damage-inducible protein (GADD45)” value (SW480 cells; 8-hour treatment, gene code C09i) was 5.36. For the same compound, the “Ratio, proliferating cyclic nuclear antigen (PCNA); cyclin” value (SW480 cells; 8-hour treatment) was 0.38, the “Ratio, growth arrest &DNA-damage-inducible protein 153 (GADD153)” value (SW480 cells; 8-hour treatment) was 6.92 and the “Ratio, DNA-binding protein CPBP” value (SW480 cells; 8-hour treatment, gene code D03b) was 1.47. The “Ratio, integrin alpha 3 (ITGA3); galactoprotein B3 (GAPB3)” value (SW480 cells; 8-hour treatment) was 2.82, the “Ratio, low-affinity nerve growth factor receptor (NGF receptor; NGFR)” value (SW480 cells; 8-hour treatment) was 1.77 and the “Ratio, histone H4” value (SW480 cells; 8-hour treatment) was 0.73. For the same compound, the “Ratio, integrin alpha 7B precursor (IGA7B)” value (SW480 cells; 8-hour treatment, gene code D08e) was 1.69, the “Ratio, paxillin” value (SW480 cells; 8-hour treatment, gene code D08f) was 2.14 and the “Ratio, nuclear protein” value (SW480 cells; 8-hour treatment) was 2.11. For the same compound, the “Ratio, T-cell surface glycoprotein CD3 epsilon subunit precursor” value (SW480 cells; 8-hour treatment, gene code D11c) was 0.60, the “Ratio, interleukin-13 precursor (IL-13); NC30” value (SW480 cells; 8-hour treatment, gene code E01g) was 0.88 and the “Ratio, interleukin-1 beta precursor (IL-1; IL1B); catabolin” value (SW480 cells; 8-hour treatment) was 1.77. For the same compound, the “Ratio, macrophage inhibitory cytokine 1 (MIC1)” value (SW480 cells; 8-hour treatment) was 6.94, the “Ratio, nerve growth factor-inducible PC4 homolog” value (SW480 cells; 8-hour treatment, gene code E03d) was 3.27 and the “Ratio, neutrophil gelatinase-associated lipocalin precursor (NGAL)” value (SW480 cells; 8-hour treatment) was 5.85. The “Ratio, ornithine decarboxylase” value (SW480 cells; 8-hour treatment, gene code F05e) was 1.82, the “Ratio, early growth response alpha (EGR alpha)” value (SW480 cells; 8-hour treatment) was 3.15 and the “Ratio, ribonucleoside-diphosphate reductase M2 subunit” value (SW480 cells; 8-hour treatment, gene code F07e) was 0.53. For the same compound, the “Ratio, type I cytoskeletal 18 keratin; cytokeratin 18 (K18)” value (SW480 cells; 8-hour treatment, gene code F08f) was 1.59, the “Ratio, gravin” value (SW480 cells; 8-hour treatment) was 6.40 and the “Ratio, glycyl tRNA synthetase” value (SW480 cells; 8-hour treatment) was 2.23. For the same compound, the “Ratio, proto-oncogene c-jun; transcription factor AP-1” value (SW480 cells; 24-hour treatment, gene code A01c) was 1.34, the “Ratio, EB1 protein” value (SW480 cells; 24-hour treatment, gene code A02b) was 0.52 and the “Ratio, c-myc binding protein MM-1” value (SW480 cells; 24-hour treatment, gene code A03g) was 0.43. The “Ratio, G1/S-specific cyclin D1 (CCND1); cyclin PRAD1; bcl-1 oncogene” value (SW480 cells; 24-hour treatment, gene code A06i) was 0.47, the “Ratio, cyclin-dependent kinase regulatory subunit 1 (CKS1)” value (SW480 cells; 24-hour treatment, gene code A10k) was 0.28 and the “Ratio, cyclin-dependent kinase regulatory subunit (CKS2)” value (SW480 cells; 24-hour treatment, gene code A11k) was 0.40. The “Ratio, fos-related antigen (FRA1)” value (SW480 cells; 24-hour treatment) was 1.99, the “Ratio, epidermal growth factor receptor (EGFR)” value (SW480 cells; 24-hour treatment) was 2.51 and the “Ratio, ADP/ATP carrier protein” value (SW480 cells; 24-hour treatment, gene code B02a) was 0.21. The “Ratio, 14-3-3 protein sigma; stratifin; epithelial cell marker protein 1” value (SW480 cells; 24-hour treatment, gene code B03m) was 0.45, the “Ratio, placental calcium-binding protein; calvasculin” value (SW480 cells; 24-hour treatment) was 0.50 and the “Ratio, ets domain protein elk-3; NET; SRF accessory protein 2 (SAP2)” value (SW480 cells; 24-hour treatment, gene code C01j) was 1.71. For the same compound, the “Ratio, tumor necrosis factor type 1 receptor associated protein (TRAP1)” value (SW480 cells; 24-hour treatment, gene code C04b) was 0.73, the “Ratio, MCM2 DNA replication licensing factor; nuclear protein BM28” value (SW480 cells; 24-hour treatment, gene code C05f) was 0.23 and the “Ratio, proliferating cyclic nuclear antigen (PCNA); cyclin” value (SW480 cells; 24-hour treatment) was 0.33. For the same compound, the “Ratio, HHR23A; UV excision repair protein protein RAD23A” value (SW480 cells; 24-hour treatment, gene code C04h) was 0.36, the “Ratio, growth arrest &DNA-damage-inducible protein 153 (GADD153)” value (SW480 cells; 24-hour treatment) was 3.66 and the “Ratio, integrin alpha 3 (ITGA3); galactoprotein B3 (GAPB3)” value (SW480 cells; 24-hour treatment) was 2.99. The “Ratio, low-affinity nerve growth factor receptor (NGF receptor; NGFR)” value (SW480 cells; 24-hour treatment) was 2.50, the “Ratio, integrin beta 4 (ITGB4); CD104 antigen” value (SW480 cells; 24-hour treatment, gene code D06e) was 2.68 and the “Ratio, cytosolic superoxide dismutase 1 (SOD1)” value (SW480 cells; 24-hour treatment, gene code D06m) was 0.45. The “Ratio, high mobility group protein HMG2” value (SW480 cells; 24-hour treatment, gene code D07b) was 0.35, the “Ratio, glutathione synthetase (GSH synthetase; GSH-S)” value (SW480 cells; 24-hour treatment, gene code D07m) was 0.34 and the “Ratio, histone H4” value (SW480 cells; 24-hour treatment) was 0.27. For the same compound, the “Ratio, nuclear protein” value (SW480 cells; 24-hour treatment) was 0.49, the “Ratio, chromatin assembly factor 1 p48 subunit (CAF1 p48 subunit)” value (SW480 cells; 24-hour treatment, gene code D12a) was 0.70 and the “Ratio, N-sam; fibroblast growth factor receptor1 precursor (FGFR1)” value (SW480 cells; 24-hour treatment, gene code D08h) was 10.39. The “Ratio, MHC class I truncated HLA G lymphocyte antigen” value (SW480 cells; 24-hour treatment, gene code E02m) was 1.36, the “Ratio, 78-kDa glucose regulated protein precursor (GRP 78)” value (SW480 cells; 24-hour treatment, gene code E02n) was 2.35 and the “Ratio, PDGF associated protein” value (SW480 cells; 24-hour treatment, gene code E04i) was 0.45. The “Ratio, interleukin-1 beta precursor (IL-1; IL1B); catabolin” value (SW480 cells; 24-hour treatment) was 1.98, the “Ratio, macrophage inhibitory cytokine 1 (MIC1)” value (SW480 cells; 24-hour treatment) was 2.79 and the “Ratio, CD59 glycoprotein precursor” value (SW480 cells; 24-hour treatment, gene code E11l) was 0.66. For the same compound, the “Ratio, fatty acid synthase” value (SW480 cells; 24-hour treatment, gene code F03e) was 0.34, the “Ratio, vimentin (VIM)” value (SW480 cells; 24-hour treatment, gene code F04g) was 1.34 and the “Ratio, neutrophil gelatinase-associated lipocalin precursor (NGAL)” value (SW480 cells; 24-hour treatment) was 23.85. For the same compound, the “Ratio, early growth response alpha (EGR alpha)” value (SW480 cells; 24-hour treatment) was 1.79, the “Ratio, gravin” value (SW480 cells; 24-hour treatment) was 8.46 and the “Ratio, inosine-5′-monophosphate dehydrogenase 2” value (SW480 cells; 24-hour treatment, gene code F10c) was 0.68. For the same compound, the “Ratio, BENE” value (SW480 cells; 24-hour treatment, gene code F12l) was 2.07, the “Ratio, elongation factor 2 (EF2)” value (SW480 cells; 24-hour treatment, gene code F13j) was 0.55 and the “Ratio, glycyl tRNA synthetase” value (SW480 cells; 24-hour treatment) was 2.02. For the same compound, the “Ratio, TRAM protein” value (SW480 cells; 24-hour treatment, gene code F09h) was 3.25, the “Ratio, L-lactate dehydrogenase H subunit (LDHB)” value (SW480 cells; 24-hour treatment, gene code F06d) was 0.40 and the “Ratio, brain-specific tubulin alpha 1 subunit (TUBA1)” value (SW480 cells; 24-hour treatment, gene code G29) was 0.72. The “Ratio, HLA class I histocompatibility antigen C-4 alpha subunit (HLAC)” value (SW480 cells; 24-hour treatment, gene code G31) was 1.29, the “Ratio, 23-kDa highly basic protein; 60S ribosomal protein L13A” value (SW480 cells; 24-hour treatment, gene code G45) was 0.65 and the “Genes analyzed down-regulated by greater than 50%” value (SW480 cells; 8 hours) was ~0.3%. For the same compound, the “Genes analyzed upregulated more than 2-fold” value (SW480 cells; 8 hours) was ~2%, the “Effect on NFAT reporter construct” value (NFAT reporter construct; Jurkat cells, PMA/Ionomycin stimulated, 0.781-50 μM, 24 hours) was “no effect” and the “Selectivity versus other CBP-dependent reporters” value (NFAT reporter construct; including NFAT, CRE and AP-1 (CRE, AP-1 data not shown)) was “very good selectivity”. The “Subcellular distribution of β-catenin” value [1] was “redistribution of β-catenin”.
